# Data as given in patent US6461997B1, “Triazole sulfones having herbicidal activity” (Monsanto Technology LLC, priority 1999, dated 2002).
# Legend:
# [1] = test system: CHEAL (common lambsquarters); assay: Pre-emergence herbicidal activity, warm season; format: in vivo, Chenopodium album; details: GR80 = lowest tested rate (300, 100, 30, 10 g/ha) with 80% or greater inhibition; approx. 14 days after treating; 30/21° C.
# Method in brief: (§1)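 GR80 values derive from percent inhibition relative to untreated plants, read roughly 14 days after sowing and pre-emergence soil-surface treatment (compound in 50:50 acetone/water; rates typically 10, 30, 100, 300 g/ha). Warm-season weeds grew at 30/21° C day/night, cool-season ones at 18/13° C; an asterisk marks activity without reaching 80% at the highest rate.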
# ECHCG (barnyardgrass) = assay: Pre-emergence herbicidal activity, warm season; format: in vivo, Echinochloa crus-galli; details: GR80 = lowest tested rate (300, 100, 30, 10 g/ha) with 80% or greater inhibition; approx. 14 days after treating; 30/21° C.
# Method in brief: as §1
# PANDI (fall panicum) = assay: Pre-emergence herbicidal activity, warm season; format: in vivo, Panicum dichotomiflorum; details: GR80 = lowest tested rate (300, 100, 30, 10 g/ha) with 80% or greater inhibition; approx. 14 days after treating; 30/21° C.
# Method in brief: as §1
# SASKR (russian thistle) = assay: Pre-emergence herbicidal activity, cool season; format: in vivo, Salsola kali; details: lowest tested rate with 80% or greater inhibition; rates 300, 100, 30, 10 g/ha; about 14 days
# Method in brief: as §1
# STEME (common chickweed) [2] = assay: Pre-emergence herbicidal activity, cool season; format: in vivo, Stellaria media; details: lowest tested rate with 80% or greater inhibition; rates 300, 100, 30, 10 g/ha; about 14 days
# Method in brief: as §1
# [3] = test system: LAMPU (purple deadnettle); assay: Pre-emergence herbicidal activity, cool season; format: in vivo, Lamium purpureum; details: lowest tested rate with 80% or greater inhibition; rates 300, 100, 30, 10 g/ha; about 14 days
# Method in brief: as §1
# [4] = test system: PANMI (wild proso millet); assay: Pre-plant incorporated (PPI) herbicidal activity, warm season; format: in vivo, Panicum miliaceum; details: for PPI activity GR80, PANMI: pre-plant incorporated, lowest tested rate with 80% or greater inhibition, about 14 days
# Method in brief: (§2)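 Incorporation into cover soil: a known compound amount, dissolved or suspended in organic solvent, was sprayed onto it and mixed before layering over sown seeds. Plants grew under greenhouse conditions (30/21° C warm season; 18/13° C cool season, greenhouse or growth chamber). Rated ~14 days later as % inhibition.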
# [5] = test system: SORHA (johnsongrass (seedling)); assay: as above; format: in vivo, Sorghum halepense; details: for PPI activity GR80, SORHA: pre-plant incorporated, lowest tested rate with 80% or greater inhibition, about 14 days
# Method in brief: as §2
# SORVU (shattercane) = assay: as above; format: in vivo, Sorghum vulgare; details: for PPI activity GR80, SORVU: pre-plant incorporated, lowest tested rate with 80% or greater inhibition, about 14 days
# Method in brief: as §2
# STEME (common chickweed) [6] = assay: Pre-plant incorporated (PPI) herbicidal activity, cool season; format: in vivo, Stellaria media; details: for PPI activity GR80, STEME: pre-plant incorporated, lowest tested rate with 80% or greater inhibition, about 14 days; for Percent inhibition STEME: weed, PPI application
# Method in brief: as §2
# ALOMY (blackgrass) = assay: as above; format: in vivo, Alopecurus myosuroides; details: for PPI activity GR80, ALOMY: pre-plant incorporated, lowest tested rate with 80% or greater inhibition, about 14 days
# Method in brief: as §2
# corn (ZEAMX) = assay: Selectivity test, PPI, warm season crop; format: in vivo, Zea mays; details: PPI application
# Method in brief: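 Percent inhibition relative to untreated controls, assessed roughly 14 days post-planting. Seeds were covered with a soil layer into which solvent-borne compound had been sprayed and mixed. Plants were then grown at 30/21° C. (warm season) or 18/13° C. (cool season) day/night regimes.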
structure (smiles),measurement,setting,value
CCN(CC)C(=O)n1cnc(S(=O)(=O)C(F)(F)C(F)F)n1 [Example 16],Pre-emergence activity (GR80) CHEAL,[1],300 g/ha
same,Pre-emergence activity (GR80) ECHCG,ECHCG (barnyardgrass),100 g/ha
same,Pre-emergence activity (GR80) PANDI,PANDI (fall panicum),100 g/ha
same,"Pre-emergence activity GR80, SASKR",SASKR (russian thistle),100 g/ha
same,"Pre-emergence activity GR80, STEME",STEME (common chickweed) [2],300 g/ha
same,"Pre-emergence activity GR80, LAMPU",[3],100 g/ha
same,Percent inhibition PANMI,"[4]; PPI application, 10 g/ha",100%
same,Percent inhibition PANMI,"[4]; PPI application, 30 g/ha",100%
same,Percent inhibition PANMI,"[4]; PPI application, 100 g/ha",100%
same,Percent inhibition PANMI,"[4]; PPI application, 300 g/ha",100%
same,Percent inhibition PANMI,"[4]; PPI application, 900 g/ha",100%
same,"PPI activity GR80, PANMI",[4],30 g/ha
same,Percent inhibition SORHA,"[5]; PPI application, 10 g/ha",0%
same,Percent inhibition SORHA,"[5]; PPI application, 30 g/ha",70%
same,Percent inhibition SORHA,"[5]; PPI application, 100 g/ha",100%
same,Percent inhibition SORHA,"[5]; PPI application, 300 g/ha",100%
same,Percent inhibition SORHA,"[5]; PPI application, 900 g/ha",100%
same,"PPI activity GR80, SORHA",[5],10 g/ha
same,Percent inhibition SORVU,"SORVU (shattercane); PPI application, 10 g/ha",20%
same,Percent inhibition SORVU,"SORVU (shattercane); PPI application, 30 g/ha",80%
same,Percent inhibition SORVU,"SORVU (shattercane); PPI application, 100 g/ha",100%
same,Percent inhibition SORVU,"SORVU (shattercane); PPI application, 300 g/ha",100%
same,Percent inhibition SORVU,"SORVU (shattercane); PPI application, 900 g/ha",100%
same,"PPI activity GR80, SORVU",SORVU (shattercane),30 g/ha
same,"PPI activity GR80, STEME",STEME (common chickweed) [6],300 g/ha
same,Percent inhibition STEME,STEME (common chickweed) [6]; 10 g/ha,40%
same,Percent inhibition STEME,STEME (common chickweed) [6]; 30 g/ha,75%
same,Percent inhibition STEME,STEME (common chickweed) [6]; 100 g/ha,60%
same,Percent inhibition STEME,STEME (common chickweed) [6]; 300 g/ha,60%
same,Percent inhibition STEME,STEME (common chickweed) [6]; 900 g/ha,95%
same,"PPI activity GR80, ALOMY",ALOMY (blackgrass),30 g/ha
same,Percent inhibition ALOMY,"ALOMY (blackgrass); weed, PPI application, 10 g/ha",40%
same,Percent inhibition ALOMY,"ALOMY (blackgrass); weed, PPI application, 30 g/ha",95%
same,Percent inhibition ALOMY,"ALOMY (blackgrass); weed, PPI application, 100 g/ha",100%
same,Percent inhibition ALOMY,"ALOMY (blackgrass); weed, PPI application, 300 g/ha",100%
same,Percent inhibition ALOMY,"ALOMY (blackgrass); weed, PPI application, 900 g/ha",100%
same,Percent inhibition ZEAMX,corn (ZEAMX); 10 g/ha,0%
same,Percent inhibition ZEAMX,corn (ZEAMX); 30 g/ha,5%
same,Percent inhibition ZEAMX,corn (ZEAMX); 100 g/ha,20%
same,Percent inhibition ZEAMX,corn (ZEAMX); 300 g/ha,40%
same,Percent inhibition ZEAMX,corn (ZEAMX); 900 g/ha,80%
"C=CCC(F)(F)S(=O)(=O)c1ncn(C(=O)N(CC)CC)n1 [Example 17, 1-(N,N-diethylcarbamoyl)-3-[(1,1-difluoro-3-butenyl)sulfonyl]-1,2,4-triazole]",Pre-emergence activity (GR80) CHEAL,[1],100 g/ha
same,Pre-emergence activity (GR80) ECHCG,ECHCG (barnyardgrass),100 g/ha
same,Pre-emergence activity (GR80) PANDI,PANDI (fall panicum),100 g/ha
same,"Pre-emergence activity GR80, SASKR",SASKR (russian thistle),100 g/ha
same,"Pre-emergence activity GR80, STEME",STEME (common chickweed) [2],100 g/ha
same,"Pre-emergence activity GR80, LAMPU",[3],100 g/ha
same,inhibition at 10 g/ha,"[4]; Panicum miliaceum, PPI application, 10 g/ha, read-out: Percent inhibition PANMI",60%
same,inhibition at 30 g/ha,"[4]; Panicum miliaceum, PPI application, 30 g/ha, read-out: Percent inhibition PANMI",100%
same,inhibition at 100 g/ha,"[4]; Panicum miliaceum, PPI application, 100 g/ha, read-out: Percent inhibition PANMI",100%
same,inhibition at 300 g/ha,"[4]; Panicum miliaceum, PPI application, 300 g/ha, read-out: Percent inhibition PANMI",100%
same,inhibition at 900 g/ha,"[4]; Panicum miliaceum, PPI application, 900 g/ha, read-out: Percent inhibition PANMI",100%
same,"PPI activity GR80, PANMI",[4],10 g/ha
same,inhibition at 10 g/ha,"[5]; Sorghum halepense, PPI application, 10 g/ha, read-out: Percent inhibition SORHA",95%
same,inhibition at 30 g/ha,"[5]; Sorghum halepense, PPI application, 30 g/ha, read-out: Percent inhibition SORHA",60%
same,inhibition at 100 g/ha,"[5]; Sorghum halepense, PPI application, 100 g/ha, read-out: Percent inhibition SORHA",100%
same,inhibition at 300 g/ha,"[5]; Sorghum halepense, PPI application, 300 g/ha, read-out: Percent inhibition SORHA",100%
same,inhibition at 900 g/ha,"[5]; Sorghum halepense, PPI application, 900 g/ha, read-out: Percent inhibition SORHA",100%
same,"PPI activity GR80, SORHA",[5],10 g/ha
same,inhibition at 10 g/ha,"SORVU (shattercane); Sorghum bicolor, PPI application, 10 g/ha, read-out: Percent inhibition SORVU",20%
same,inhibition at 30 g/ha,"SORVU (shattercane); Sorghum bicolor, PPI application, 30 g/ha, read-out: Percent inhibition SORVU",70%
same,inhibition at 100 g/ha,"SORVU (shattercane); Sorghum bicolor, PPI application, 100 g/ha, read-out: Percent inhibition SORVU",100%
same,inhibition at 300 g/ha,"SORVU (shattercane); Sorghum bicolor, PPI application, 300 g/ha, read-out: Percent inhibition SORVU",100%
same,inhibition at 900 g/ha,"SORVU (shattercane); Sorghum bicolor, PPI application, 900 g/ha, read-out: Percent inhibition SORVU",100%
same,"PPI activity GR80, SORVU",SORVU (shattercane),"* (activity observed, at least at highest rate, but <80% inhibition)"
same,"PPI activity GR80, STEME",STEME (common chickweed) [6],10 g/ha
same,inhibition at 10 g/ha,"ALOMY (blackgrass); Alopecurus myosuroides, weed, PPI application, 10 g/ha, read-out: Percent inhibition ALOMY",50%
same,inhibition at 30 g/ha,"ALOMY (blackgrass); Alopecurus myosuroides, weed, PPI application, 30 g/ha, read-out: Percent inhibition ALOMY",60%
same,inhibition at 100 g/ha,"ALOMY (blackgrass); Alopecurus myosuroides, weed, PPI application, 100 g/ha, read-out: Percent inhibition ALOMY",100%
same,inhibition at 300 g/ha,"ALOMY (blackgrass); Alopecurus myosuroides, weed, PPI application, 300 g/ha, read-out: Percent inhibition ALOMY",90%
same,inhibition at 900 g/ha,"ALOMY (blackgrass); Alopecurus myosuroides, weed, PPI application, 900 g/ha, read-out: Percent inhibition ALOMY",100%
same,"PPI activity GR80, ALOMY",ALOMY (blackgrass),30 g/ha
same,inhibition at 10 g/ha,"corn (ZEAMX); Zea mays, 10 g/ha, read-out: Percent inhibition ZEAMX",0%
same,inhibition at 30 g/ha,"corn (ZEAMX); Zea mays, 30 g/ha, read-out: Percent inhibition ZEAMX",0%
same,inhibition at 100 g/ha,"corn (ZEAMX); Zea mays, 100 g/ha, read-out: Percent inhibition ZEAMX",20%
same,inhibition at 300 g/ha,"corn (ZEAMX); Zea mays, 300 g/ha, read-out: Percent inhibition ZEAMX",30%
same,inhibition at 900 g/ha,"corn (ZEAMX); Zea mays, 900 g/ha, read-out: Percent inhibition ZEAMX",95%
